Where “and” joins values, the source holds several entries; their conditions need not be identical. Identical values can stand only once.
Legend:
[1] = biological target: T1, eIF2B decamer in eIF2Bα^V183F HEK293T lysate (Homo sapiens, UniProt P49770+Q14232+Q9UI10, V183F); assay: Sucrose gradient centrifugation, eIF2B complex assembly, eIF2Bα V183F HEK293T lysate; format: biochemical; conditions: 500 nM ISRIB, 200 μM F6P
T1 construct: endogenous in cells
Experimental: WT or eIF2Bα mutant HEK293T cells were harvested and lysed in 50 mM HEPES, 400 mM KCl, 1 mM DTT, 4 mM Mg(OAc)2, pH 7.5 + 0.5% Triton-X-100 + EDTA-free protease inhibitor cocktail (Roche) on ice for 30 min. Lysates were cleared by centrifugation at 48,000 × g, 4 °C for 30 min. 100 μL of each cleared lysate was loaded onto a 5–20% sucrose gradient prepared in a 13 × 51 mm ultracentrifuge tube using a Gradient Station (Biocomp) and centrifuged in a SW55 Ti rotor at 152,000 × g, 4 °C for 12 h. After centrifugation, 24 × 200 μL fractions were manually collected from the top to bottom of each gradient. Each fraction was subjected to methanol/chloroform precipitation and SDS-PAGE followed by Western Blot with the indicated antibodies. Blots were imaged on a ChemiDoc MP (Bio-Rad), and band intensities were quantified using the instrument’s Image Lab software. Each value was then divided by total intensity obtained across all fractions to determine percent enrichment of each subunit in each fraction.

eIF2Bα [2] = biological target: T2, eIF2Bα (Homo sapiens, UniProt Q14232); assay: MIDAS (mass spectrometry integrated with equilibrium dialysis) metabolite binding screen; conditions: eIF2Bα2; 50 μM per metabolite pool; 40 h dialysis at 4 °C
T2 construct: made in house; host or cells: E. coli BL21(DE3)
T2 sequence (Q14232 1-305): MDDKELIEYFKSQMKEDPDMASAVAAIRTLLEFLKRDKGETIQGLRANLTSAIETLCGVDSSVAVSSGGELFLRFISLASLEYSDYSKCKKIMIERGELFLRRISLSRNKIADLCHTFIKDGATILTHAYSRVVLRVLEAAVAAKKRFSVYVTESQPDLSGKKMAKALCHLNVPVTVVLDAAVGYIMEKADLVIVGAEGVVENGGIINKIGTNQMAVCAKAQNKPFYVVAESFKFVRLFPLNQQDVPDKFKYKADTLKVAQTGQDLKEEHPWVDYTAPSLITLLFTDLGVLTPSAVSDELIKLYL
In short: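 Hits called at Storey q < 0.1 on z-scores of PCA-corrected log2 fold change between protein and metabolite chambers, quantified by FIA-MS in triplicate.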

eIF2Bα^V183F = eIF2Bα^V183F (Homo sapiens, UniProt Q14232, V183F); assay: Size-exclusion chromatography of recombinant eIF2Bα V183F, alone or with eIF2B(βδγε); format: biochemical; design: made in house; host or cells: E. coli BL21(DE3); conditions: SEC, recombinant eIF2B(βδγε) + eIF2Bα V183F; 200 μM F6P
Sequence of eIF2Bα^V183F (Q14232 whole entry V183F): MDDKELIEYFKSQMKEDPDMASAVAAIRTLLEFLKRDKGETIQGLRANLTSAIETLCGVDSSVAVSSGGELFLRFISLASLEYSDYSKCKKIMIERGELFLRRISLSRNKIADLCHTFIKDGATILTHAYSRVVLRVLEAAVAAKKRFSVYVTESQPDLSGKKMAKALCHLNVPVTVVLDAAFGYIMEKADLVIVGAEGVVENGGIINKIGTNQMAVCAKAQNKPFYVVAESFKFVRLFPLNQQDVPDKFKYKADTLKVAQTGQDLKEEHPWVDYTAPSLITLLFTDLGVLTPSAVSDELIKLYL
Sequence of eIF2Bα^V183F (P49770 whole entry partner): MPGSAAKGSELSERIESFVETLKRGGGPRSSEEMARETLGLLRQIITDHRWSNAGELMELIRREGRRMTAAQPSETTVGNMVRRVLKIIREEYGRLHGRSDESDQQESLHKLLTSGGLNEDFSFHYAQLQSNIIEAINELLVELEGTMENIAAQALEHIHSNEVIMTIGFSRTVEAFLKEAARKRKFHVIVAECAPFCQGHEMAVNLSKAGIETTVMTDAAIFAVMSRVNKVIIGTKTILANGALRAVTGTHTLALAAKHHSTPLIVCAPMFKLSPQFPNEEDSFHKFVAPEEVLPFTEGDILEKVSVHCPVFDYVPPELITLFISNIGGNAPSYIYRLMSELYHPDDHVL
Sequence of eIF2Bα^V183F (Q9UI10 whole entry partner): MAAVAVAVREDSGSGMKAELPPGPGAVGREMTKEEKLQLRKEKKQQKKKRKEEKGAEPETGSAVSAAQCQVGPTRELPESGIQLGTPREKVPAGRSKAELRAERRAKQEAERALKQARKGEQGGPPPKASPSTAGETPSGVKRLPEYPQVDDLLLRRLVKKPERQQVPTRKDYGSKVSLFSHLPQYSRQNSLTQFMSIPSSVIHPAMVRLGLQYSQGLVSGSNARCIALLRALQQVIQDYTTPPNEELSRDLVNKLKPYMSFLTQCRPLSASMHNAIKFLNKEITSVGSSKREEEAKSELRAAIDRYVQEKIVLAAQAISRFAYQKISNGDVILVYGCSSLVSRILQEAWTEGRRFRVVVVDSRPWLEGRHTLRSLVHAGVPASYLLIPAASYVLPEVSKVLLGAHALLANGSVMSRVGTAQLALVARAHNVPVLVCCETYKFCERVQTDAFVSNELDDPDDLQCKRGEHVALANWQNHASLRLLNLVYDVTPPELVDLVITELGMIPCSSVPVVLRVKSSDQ
Sequence of eIF2Bα^V183F (Q9NR50 whole entry partner): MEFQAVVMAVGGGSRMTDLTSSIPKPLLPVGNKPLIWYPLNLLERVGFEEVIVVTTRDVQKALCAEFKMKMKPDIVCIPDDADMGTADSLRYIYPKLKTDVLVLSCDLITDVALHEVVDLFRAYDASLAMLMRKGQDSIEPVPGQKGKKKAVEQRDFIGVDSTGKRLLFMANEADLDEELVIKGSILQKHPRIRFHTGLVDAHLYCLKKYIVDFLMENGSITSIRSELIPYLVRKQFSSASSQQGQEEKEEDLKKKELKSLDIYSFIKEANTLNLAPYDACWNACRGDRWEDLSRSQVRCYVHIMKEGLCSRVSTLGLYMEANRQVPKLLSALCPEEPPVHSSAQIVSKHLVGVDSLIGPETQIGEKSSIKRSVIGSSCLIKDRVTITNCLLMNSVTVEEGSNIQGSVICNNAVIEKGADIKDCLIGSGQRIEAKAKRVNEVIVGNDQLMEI
Sequence of eIF2Bα^V183F (Q13144 whole entry partner): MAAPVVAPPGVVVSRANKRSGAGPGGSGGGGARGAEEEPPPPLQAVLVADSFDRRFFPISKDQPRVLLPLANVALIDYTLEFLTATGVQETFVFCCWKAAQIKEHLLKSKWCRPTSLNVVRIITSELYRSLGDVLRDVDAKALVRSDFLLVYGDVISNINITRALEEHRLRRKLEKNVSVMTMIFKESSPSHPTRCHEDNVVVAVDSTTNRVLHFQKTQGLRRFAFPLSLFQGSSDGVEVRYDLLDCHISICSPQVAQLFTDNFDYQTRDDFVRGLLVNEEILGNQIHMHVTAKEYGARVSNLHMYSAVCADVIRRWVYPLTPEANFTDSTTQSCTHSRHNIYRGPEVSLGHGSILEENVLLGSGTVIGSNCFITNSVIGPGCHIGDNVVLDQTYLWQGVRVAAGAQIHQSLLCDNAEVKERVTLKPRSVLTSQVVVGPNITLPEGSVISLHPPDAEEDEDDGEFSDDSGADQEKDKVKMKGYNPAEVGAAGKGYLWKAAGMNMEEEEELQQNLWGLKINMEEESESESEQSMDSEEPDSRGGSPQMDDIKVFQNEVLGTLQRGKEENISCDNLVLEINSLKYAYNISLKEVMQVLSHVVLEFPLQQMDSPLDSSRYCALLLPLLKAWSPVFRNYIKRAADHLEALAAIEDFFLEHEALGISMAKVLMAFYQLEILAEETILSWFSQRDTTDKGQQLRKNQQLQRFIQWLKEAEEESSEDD
Experimental: Purified proteins were thawed and centrifuged at 20,000 × g, 10 min, 4 °C to remove any potential precipitate. Concentrations of eIF2B(βδγε) and eIF2Bα were normalized to 2 μM and 2.4 μM, respectively. 0.2 mL of each mixture was injected onto a Superose 6 Increase 10/300 column connected to an AKTA Pure 25 FPLC system (GE Healthcare). The system was run at 0.5 mL/min for 1 h using 25 mM HEPES, 200 mM KCl, 2 mM MgCl2, 1 mM DTT, pH 7.5 as the mobile phase. For conditions with ISRIB, the protein samples and mobile phase were supplemented with 500 nM ISRIB. For conditions with F6P, the protein samples and mobile phase were supplemented with 200 μM F6P. UV280 measurements were obtained directly by the instrument.

eIF2Bα [3] = biological target: T2, eIF2Bα; assay: Differential scanning fluorimetry (Protein Thermal Shift), eIF2Bα Tm; format: binding; conditions: for Tm of eIF2Bα: individual replicates Rep 1-4, control without metabolite about 64.1
In short: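 Human eIF2Bα at 1.5 μM was heated with Thermal Shift dye and metabolites in dose response. Tm for each condition came from Boltzmann fits of the melt curves.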

T1 sequence (Q14232 whole entry V183F): as the sequence (Q14232 whole entry V183F) above
T1 sequence (P49770 whole entry): as the sequence (P49770 whole entry partner) above
T1 sequence (Q9UI10 whole entry): as the sequence (Q9UI10 whole entry partner) above
T1 sequence (Q9NR50 whole entry partner): as the sequence (Q9NR50 whole entry partner) above
T1 sequence (Q13144 whole entry partner): as the sequence (Q13144 whole entry partner) above

## O=C(CO)[C@@H](O)[C@H](O)[C@H](O)COP(=O)(O)O [F6P, fructose-6-phosphate]
[1]
  eIF2B decamer formation: promoted decamer formation at comparable levels
eIF2Bα [2]
  MIDAS result (enrichment in the protein chamber / hit status): not a MIDAS hit
eIF2Bα^V183F
  eIF2Bα V183F monomer peak: significant reduction of the eIF2Bα^V183F monomer peak
eIF2Bα [3]; 0.33 mM metabolite
  Tm of eIF2Bα: 64.8334 °C and 64.3598 °C and 65.3978 °C and 64.9639 °C
eIF2Bα [3]; 1 mM metabolite
  Tm of eIF2Bα: 66.8037 °C and 65.9412 °C and 67.2839 °C and 67.2375 °C
eIF2Bα [3]; 3.3 mM metabolite
  Tm of eIF2Bα: 67.7489 °C and 67.4475 °C and 67.8791 °C and 67.7249 °C
eIF2Bα [3]; 10 mM metabolite
  Tm of eIF2Bα: 69.8589 °C and 69.0448 °C and 70.0639 °C and 69.9908 °C
eIF2Bα [3]; largest shift seen in dose-response
  Tm shift of eIF2Bα2: 6 °C
